In PMC2999579 (Molecular imaging and biology : MIB : the official …, 2009):

Molecular target: integrin αvβ3 (Homo sapiens, UniProt P05106+P06756)
Assay: Competitive cell-binding assay with ^125I-echistatin on U87MG cells
Conditions: SD

- IC50: 404 ± 38 nM
Compound: CC(F)C(=O)NC[C@@H]1O[C@H](C(=O)NCCCC[C@@H]2NC(=O)[C@@H](Cc3ccccc3)NC(=O)[C@H](CC(=O)O)NC(=O)CNC(=O)[C@H](CCCNC(=N)N)NC2=O)[C@H](O)[C@H](O)[C@H]1O (stereo partly shown) [galacto-RGD, FP-SAA-c(RGDfK)]
